Source: patent publication US20240270762A1, “PENICILLIN-BINDING PROTEIN INHIBITORS” (priority 2021, published 2024)
Converted amounts (≈) assume the structure as drawn.

How the values were obtained:
K. pneumoniae SI-117 = test: microbe, parasite or virus in culture; type: cell-based; details: Klebsiella pneumoniae, SI117, read-out: MIC K. pneumoniae SI-117
E. coli 901C = test: microbe, parasite or virus in culture; type: cell-based; details: Escherichia coli, read-out: MIC E. coli 901C
N. gonorrhoeae FA1090 = test: Liquid broth MIC in Fastidious broth; details: Neisseria gonorrhoeae, FA1090, read-out: Minimum Inhibitory Concentration (MIC), N. gonorrhoeae FA 1090
K. pneumoniae UMM = test: microbe, parasite or virus in culture; type: cell-based; details: Klebsiella pneumoniae, read-out: MIC K. pneumoniae UMM
E. coli AG100 = test: microbe, parasite or virus in culture; type: cell-based; details: Escherichia coli, AG100, read-out: MIC E. coli AG100
E. coli ATCC 25922 = test: microbe, parasite or virus in culture; type: cell-based; details: Escherichia coli, ATCC25922, read-out: MIC E. coli 25922
[1] = system: P. aeruginosa (ΔmexAB-oprM); test: Broth microdilution MIC in CAMHB; type: cell-based; details: Pseudomonas aeruginosa; read-out: MIC P. aeruginosa ΔmexAB-oprM
N. gonorrhoeae WHO K = test: Liquid broth MIC in Fastidious broth; details: Neisseria gonorrhoeae, read-out: Minimum Inhibitory Concentration (MIC), N. gonorrhoeae WHO K
E. coli D22 = test: microbe, parasite or virus in culture; type: cell-based; details: Escherichia coli, D22, read-out: MIC E. coli D22
P. aeruginosa ATCC 35151 = test: microbe, parasite or virus in culture; type: cell-based; details: Pseudomonas aeruginosa, ATCC35151, read-out: MIC P. aeruginosa ATCC 35151
P. aeruginosa ATCC 27853 = test: microbe, parasite or virus in culture; type: cell-based; details: Pseudomonas aeruginosa, ATCC27853, read-out: MIC P. aeruginosa ATCC 27853
K. pneumoniae 848844 = test: microbe, parasite or virus in culture; type: cell-based; details: Klebsiella pneumoniae, 848844, read-out: MIC K. pneumoniae 848844
N. gonorrhoeae WHO M = test: Liquid broth MIC in Fastidious broth; details: Neisseria gonorrhoeae, read-out: Minimum Inhibitory Concentration (MIC), N. gonorrhoeae WHO M
Description: Liquid broth-based assays were used for antibacterial testing of PBP inhibitors in Neisseria gonorrhoeae. Briefly, cryo-preserved bacterial cultures of clinical strains were streaked for isolation on Chocolate Agar (72 g/L (2×) GC Agar Base (BD #228950) and 2% (2×) Hemoglobin was autoclaved at 121° C. for 20 minutes to sterilize. Once cooled to ˜50° C. the 2×GC Agar Base and 2× Hemoglobin solutions are combined and 1% IsoVitaleX Enrichment (BD #211876) was added to the solution). Strains were incubated at 36° C. and 5% CO2 to allow growth of colonies, 24 hours before inoculum preparation. 2-fold serial dilutions of test compounds were conducted in a 96 well plate with a final volume of 75 μL per well at 2-fold the final desired concentration in Fastidious broth (Remel #R07664). For preparation of assay inoculum, a direct suspension was prepared by aseptically swabbing 10-15 colonies from agar plates into culture tubes containing 2 mL of fresh sterile saline. After the dilution plates were set up, direct suspensions were then diluted in a cuvette containing sterile saline and the optical density was measured at 600 nm. Inocula were diluted such that 75 μL of this culture in Fastidious broth results in a starting bacterial concentration of 5×10^5 CFU/mL when added to the dilution plates. The plates were incubated for ˜24 hours at 36° C. and 5% CO2.

A. baumannii ATCC 19606 = test: microbe, parasite or virus in culture; type: cell-based; details: Acinetobacter baumannii, ATCC19606, read-out: MIC, A. baumannii ATCC 19606
N. gonorrhoeae MS11 = test: Liquid broth MIC in Fastidious broth; details: Neisseria gonorrhoeae, MS11, read-out: Minimum Inhibitory Concentration (MIC), N. gonorrhoeae MS11
[2] = biological target: T1, PBP2 from Neisseria gonorrhoeae (FA19) (Neisseria gonorrhoeae, UniProt P08149); test: Bocillin-FL fluorescence polarization competition binding, N. gonorrhoeae PBP2; details: fluorescence polarization competition binding assay using Bocillin-FL, read-out: N. gonorrhoeae PBP2 Potency
T1 construct: made in house
In short: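 Fluorescence polarization competition with 0.1 μM Bocillin-FL (fluorescent penicillin V) against 0.25 μM N. gonorrhoeae FA19 PBP2 in 50 mM Hepes pH 8.0, 300 mM NaCl, 10% glycerol. Boronic acid inhibitors were preincubated with PBP, then Bocillin-FL was added and FP read (490/520 nm) up to 60 min. EC50 is the concentration halving PBP-bound Bocillin-FL.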

N. gonorrhoeae WHO X = test: Liquid broth MIC in Fastidious broth; details: Neisseria gonorrhoeae, read-out: Minimum Inhibitory Concentration (MIC), N. gonorrhoeae WHO X
N. gonorrhoeae WHO Z = test: Liquid broth MIC in Fastidious broth; details: Neisseria gonorrhoeae, read-out: Minimum Inhibitory Concentration (MIC), N. gonorrhoeae WHO Z

T1 sequence (P08149 whole entry): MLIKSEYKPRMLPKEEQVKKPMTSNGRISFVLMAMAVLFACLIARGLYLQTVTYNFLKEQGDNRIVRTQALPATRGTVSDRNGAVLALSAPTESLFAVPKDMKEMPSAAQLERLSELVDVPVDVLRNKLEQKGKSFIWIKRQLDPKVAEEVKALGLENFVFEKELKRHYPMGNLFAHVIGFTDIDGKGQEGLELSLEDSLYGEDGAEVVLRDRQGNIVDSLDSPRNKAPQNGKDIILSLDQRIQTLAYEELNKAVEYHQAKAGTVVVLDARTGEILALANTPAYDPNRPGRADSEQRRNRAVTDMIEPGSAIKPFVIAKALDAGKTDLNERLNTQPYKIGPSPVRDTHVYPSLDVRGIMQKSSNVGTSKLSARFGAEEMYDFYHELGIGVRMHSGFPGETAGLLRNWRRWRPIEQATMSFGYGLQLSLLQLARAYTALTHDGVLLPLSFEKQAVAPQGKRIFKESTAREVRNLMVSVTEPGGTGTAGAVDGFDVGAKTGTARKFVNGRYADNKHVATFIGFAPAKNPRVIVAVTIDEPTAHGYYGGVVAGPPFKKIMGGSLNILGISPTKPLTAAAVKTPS

SMILES | MIC (K. pneumoniae SI-117) | MIC (E. coli 901C) | MIC (N. gonorrhoeae FA1090) | MIC (K. pneumoniae UMM) | MIC (E. coli AG100) | MIC (E. coli ATCC 25922) | MIC [1] | MIC (N. gonorrhoeae WHO K) | MIC (E. coli D22) | MIC (P. aeruginosa ATCC 35151) | MIC (P. aeruginosa ATCC 27853) | MIC (K. pneumoniae 848844) | MIC (N. gonorrhoeae WHO M) | MIC (A. baumannii ATCC 19606) | MIC (N. gonorrhoeae MS11) | EC50 [2] | MIC (N. gonorrhoeae WHO X) | MIC (N. gonorrhoeae WHO Z)
CN1CCN(C(=O)NC(C(=O)N[C@H]2Cc3cccc(C(=O)O)c3OB2O)c2ccc(P(=O)(O)O)cc2)C1=O (stereo partly drawn) [Example 41, (3R)-2-hydroxy-3-(2-(3-methyl-2-oxoimidazolidine-1-carboxamido)-2-(4-phosphonophenyl)acetamido)-3,4-dihydro-2H-benzo[e][1,2]oxaborinine-8-carboxylic acid] | > 128 µg/mL | < 1 µg/mL | < 1 µg/mL | 32 to 64 µg/mL (≈ 58.6 to 117 µM) | 32 to 64 µg/mL (≈ 58.6 to 117 µM) | 32 to 64 µg/mL (≈ 58.6 to 117 µM) | 8 to 16 µg/mL (≈ 14.6 to 29.3 µM) | < 1 µg/mL | 2 to 4 µg/mL (≈ 3.66 to 7.32 µM) | < 1 µg/mL | > 128 µg/mL | > 128 µg/mL | < 1 µg/mL | 32 to 64 µg/mL (≈ 58.6 to 117 µM) | < 1 µg/mL | < 10 µM | 1 to 2 µg/mL (≈ 1.83 to 3.66 µM) | < 1 µg/mL
CS(=O)(=O)N1CCN(C(=O)N[C@@H](C(=O)N[C@H]2Cc3cccc(C(=O)O)c3OB2O)c2ccc(P(=O)(O)O)c(F)c2F)C1=O (single isomer, unassigned) [Example 13] | > 128 µg/mL | < 1 µg/mL | < 1 µg/mL | > 128 µg/mL | 32 to 64 µg/mL (≈ 49.5 to 99 µM) | > 128 µg/mL | 32 to 64 µg/mL (≈ 49.5 to 99 µM) | < 1 µg/mL | 8 to 16 µg/mL (≈ 12.4 to 24.8 µM) | 2 to 4 µg/mL (≈ 3.09 to 6.19 µM) | > 128 µg/mL | > 128 µg/mL | < 1 µg/mL | 32 to 64 µg/mL (≈ 49.5 to 99 µM) | < 1 µg/mL | < 10 µM | < 1 µg/mL | < 1 µg/mL
CS(=O)(=O)N1CCC[C@H]1C(=O)N[C@@H](C(=O)N[C@H]1Cc2cccc(C(=O)O)c2OB1O)c1ccc(P(=O)(O)O)cc1 [Example 44, (R)-2-hydroxy-3-((R)-2-((S)-1-(methylsulfonyl)pyrrolidine-2-carboxamido)-2-(4-phosphonophenyl)acetamido)-3,4-dihydro-2H-benzo[e][1,2]oxaborinine-8-carboxylic acid] | > 128 µg/mL | 2 to 4 µg/mL (≈ 3.36 to 6.72 µM) | < 1 µg/mL | > 128 µg/mL | > 128 µg/mL | > 128 µg/mL | 32 to 64 µg/mL (≈ 53.8 to 108 µM) | 4 to 8 µg/mL (≈ 6.72 to 13.4 µM) | 8 to 16 µg/mL (≈ 13.4 to 26.9 µM) | 2 to 4 µg/mL (≈ 3.36 to 6.72 µM) | > 128 µg/mL | > 128 µg/mL | < 1 µg/mL | > 128 µg/mL | 1 to 2 µg/mL (≈ 1.68 to 3.36 µM) | < 10 µM | 16 to 32 µg/mL (≈ 26.9 to 53.8 µM) | 1 to 2 µg/mL (≈ 1.68 to 3.36 µM)
CCN1CCN(C(=O)N[C@@H](C(=O)N[C@H]2Cc3cccc(C(=O)O)c3OB2O)c2ccc(P(=O)(O)O)c(F)c2)C(=O)C1=O (single isomer, unassigned) [Example 7] | > 128 µg/mL | < 1 µg/mL | < 1 µg/mL | 32 to 64 µg/mL (≈ 52.8 to 106 µM) | 8 to 16 µg/mL (≈ 13.2 to 26.4 µM) | 32 to 64 µg/mL (≈ 52.8 to 106 µM) | 8 to 16 µg/mL (≈ 13.2 to 26.4 µM) | < 1 µg/mL | 2 to 4 µg/mL (≈ 3.3 to 6.6 µM) | < 1 µg/mL | 32 to 64 µg/mL (≈ 52.8 to 106 µM) | > 128 µg/mL | < 1 µg/mL | 8 to 16 µg/mL (≈ 13.2 to 26.4 µM) | < 1 µg/mL | < 10 µM | < 1 µg/mL | < 1 µg/mL
CS(=O)(=O)N1CCN(C(=O)N[C@@H](C(=O)N[C@H]2Cc3ccc(F)c(C(=O)O)c3OB2O)c2ccc(P(=O)(O)O)c(F)c2F)C1=O [Example 16, (R)-3-((R)-2-(2,3-difluoro-4-phosphonophenyl)-2-(3-(methylsulfonyl)-2-oxoimidazolidine-1-carboxamido)acetamido)-7-fluoro-2-hydroxy-3,4-dihydro-2H-benzo[e][1,2]oxaborinine-8-carboxylic acid] | > 128 µg/mL | < 1 µg/mL | < 1 µg/mL | > 128 µg/mL | > 128 µg/mL | > 128 µg/mL | > 128 µg/mL | < 1 µg/mL | 8 to 16 µg/mL (≈ 12 to 24.1 µM) | 2 to 4 µg/mL (≈ 3.01 to 6.02 µM) | > 128 µg/mL | > 128 µg/mL | < 1 µg/mL | > 128 µg/mL | < 1 µg/mL | < 10 µM | < 1 µg/mL | < 1 µg/mL
